Literature values as cited in patent publication US9333228B2, “Nutritional supplement for recovery, repair, and maintenance” (Top Doctors Labs, LLC, priority 2010, dated 2016).

System: osteoporotic fractures
Details: human clinical studies; vitamin K2 as MK-4

## CC(C)=CCC/C(C)=C/CC/C(C)=C/CC/C(C)=C/CC1=C(C)C(=O)c2ccccc2C1=O [vitamin K2, menatetranone]
  lower risk of osteoporotic fractures: up to 81%
